# Laboratory results reported in ChEMBL document CHEMBL3039007, “Structure-based identification of OATP1B1/3 inhibitors” (Mol Pharmacol, 2013).
# Columns and labels:
# [1] = target: T1, Solute carrier organic anion transporter family member 1B1 (Homo sapiens, UniProt Q9Y6L6); details: chinese hamster, cho, 10 µM
# T1 sequence (Q9Y6L6 whole entry): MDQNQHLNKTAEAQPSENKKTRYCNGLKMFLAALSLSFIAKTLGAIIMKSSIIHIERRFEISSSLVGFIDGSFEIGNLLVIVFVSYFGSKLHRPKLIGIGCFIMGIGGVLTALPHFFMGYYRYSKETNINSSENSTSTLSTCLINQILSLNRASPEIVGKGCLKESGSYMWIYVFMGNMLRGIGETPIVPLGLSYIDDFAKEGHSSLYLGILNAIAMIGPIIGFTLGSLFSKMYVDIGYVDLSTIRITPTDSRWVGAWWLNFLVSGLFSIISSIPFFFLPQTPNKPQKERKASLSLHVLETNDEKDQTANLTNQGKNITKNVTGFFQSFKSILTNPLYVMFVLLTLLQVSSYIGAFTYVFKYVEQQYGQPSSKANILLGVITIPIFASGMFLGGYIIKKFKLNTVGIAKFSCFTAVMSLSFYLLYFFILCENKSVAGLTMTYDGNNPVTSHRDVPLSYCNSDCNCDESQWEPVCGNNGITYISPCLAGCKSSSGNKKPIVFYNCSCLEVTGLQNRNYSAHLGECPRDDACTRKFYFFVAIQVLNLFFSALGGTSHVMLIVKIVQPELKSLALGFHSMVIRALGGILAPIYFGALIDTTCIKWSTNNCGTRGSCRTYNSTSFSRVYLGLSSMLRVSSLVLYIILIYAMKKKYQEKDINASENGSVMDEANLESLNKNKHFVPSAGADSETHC
# [2] = target: T2, Solute carrier organic anion transporter family member 1B3 (Homo sapiens, UniProt Q9NPD5); details: chinese hamster, cho, 10 µM
# T2 sequence (Q9NPD5 whole entry): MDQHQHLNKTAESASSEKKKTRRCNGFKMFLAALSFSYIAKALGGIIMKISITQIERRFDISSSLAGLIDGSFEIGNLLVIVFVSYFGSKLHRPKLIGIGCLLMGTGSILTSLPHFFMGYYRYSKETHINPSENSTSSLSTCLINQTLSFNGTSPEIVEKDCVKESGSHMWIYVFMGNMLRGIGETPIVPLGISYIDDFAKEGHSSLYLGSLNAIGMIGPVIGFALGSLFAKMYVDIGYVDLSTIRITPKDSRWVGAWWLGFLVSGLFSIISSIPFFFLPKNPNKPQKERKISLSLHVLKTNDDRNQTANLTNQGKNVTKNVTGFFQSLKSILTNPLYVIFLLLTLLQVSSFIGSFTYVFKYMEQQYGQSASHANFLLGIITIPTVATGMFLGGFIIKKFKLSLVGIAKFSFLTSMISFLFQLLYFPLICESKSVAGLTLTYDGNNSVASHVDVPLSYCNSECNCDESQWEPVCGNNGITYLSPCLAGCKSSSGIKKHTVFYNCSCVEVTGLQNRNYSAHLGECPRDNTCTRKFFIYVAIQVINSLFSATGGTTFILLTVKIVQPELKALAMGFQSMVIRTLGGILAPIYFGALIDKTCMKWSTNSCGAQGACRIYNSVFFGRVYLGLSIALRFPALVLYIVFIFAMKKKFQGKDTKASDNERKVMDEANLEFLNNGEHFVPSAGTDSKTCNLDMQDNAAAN
Structure (SMILES),residual activity [1],residual activity [2]
CC(C)[N+](C)(CCOC(=O)C1c2ccccc2Oc2ccccc21)C(C)C.[Br-] [PROPANTHELINE BROMIDE],110.4%,110.4%
C[C@@H]1CC[C@@]2(OC1)O[C@H]1C[C@H]3[C@@H]4CC=C5C[C@@H](O)CC[C@]5(C)[C@H]4CC[C@]3(C)[C@H]1[C@@H]2C [DISOGENIN],85.54%,85.35%
Cl.c1ccc2c(c1)CN1CCCC1=N2 [DESOXYPEGANINE HYDROCHLORIDE],132%,113.9%
C[C@H](CCC(=O)O)[C@H]1CC[C@H]2[C@@H]3[C@H](O)C[C@@H]4C[C@H](O)CC[C@]4(C)[C@H]3C[C@H](O)[C@]12C [CHOLIC ACID],99.52%,75.03%
CN1CCc2cc3c(cc2C1O)OCO3.Cl (stereo not given) [HYDRASTININE HYDROCHLORIDE],62.32%,73.39%
Cc1cc(=O)c2c(O)c(C)c(O)cc2o1 [EUGENITOL],77.61%,88.28%
CC(=O)[C@H]1CC[C@H]2[C@@H]3CCC4=CC(=O)CC[C@]4(C)[C@H]3CC[C@]12C [PROGESTERONE],52.43%,92%
Cl.NNc1nncc2ccccc12 [HYDRALAZINE HYDROCHLORIDE],87.74%,115.1%
Cc1noc(NS(=O)(=O)c2ccc(N)cc2)c1C [SULFISOXAZOLE],78.99%,90.16%
COC1=C(O)C(=O)c2c(cc3oc(C(C)=O)c(O)c3c2O)C1=O [RHODOCLADONIC ACID],93.89%,96.54%
C[C@]12CC[C@@H]3c4ccc(O)cc4CC[C@H]3[C@@H]1CC[C@@H]2OC(=O)CCC1CCCC1 [ESTRADIOL CYPIONATE],81.59%,90.49%
CC(=O)CC1CCCCN1.Cl (stereo not given) [PELLETIERINE HYDROCHLORIDE],75.96%,95.02%
COc1ccc(CCC(=O)c2c(O)cc(O[C@@H]3O[C@H](CO)[C@@H](O)[C@H](O)[C@H]3O[C@@H]3O[C@@H](C)[C@H](O)[C@@H](O)[C@H]3O)cc2O)cc1O [NEOHESPERIDIN DIHYDROCHALCONE],53.61%,198.2%
CC(C)[C@@H](C)/C=C/[C@@H](C)[C@H]1CC[C@H]2C3=CC=C4C[C@@H](O)CC[C@]4(C)[C@H]3CC[C@]12C [ERGOSTEROL],31.68%,52.34%
O=C(CC(=O)c1ccccc1)c1ccccc1 [DIBENZOYLMETHANE],129.7%,118.4%
CC1(C)CC[C@]2(C)CC[C@]3(C)C(=CC[C@@H]4[C@@]5(C)CC[C@H](O)C(C)(C)[C@@H]5CC[C@]43C)[C@@H]2C1 [beta-AMYRIN],65.86%,75.14%
CC(=O)Oc1ccc(C(c2ccc(OC(C)=O)cc2)c2ccccn2)cc1 [BISACODYL],97.08%,103.3%
CO/N=C1\CN(c2nc3c(cc2F)c(=O)c(C(=O)O)cn3C2CC2)CC1CN.CS(=O)(=O)O (stereo not given) [GEMIFLOXACIN MESYLATE],102.7%,108.8%
NC(Cc1c[nH]cn1)C(=O)Nc1ccc2ccccc2c1 (stereo not given),89.48%,105.8%
C#CCN(C)Cc1ccccc1.Cl [PARGYLINE HYDROCHLORIDE],99.32%,133.9%
CC(C)NCC(O)c1ccc2ccccc2c1.Cl (stereo not given),83.88%,87.91%
O=C(O)Cc1cc(I)c(Oc2cc(I)c(O)c(I)c2)c(I)c1 [TETRAC],33.41%,71.42%
"CC(=O)/C(=C\c1ccccc1)CC(=O)O [LEVULINIC ACID,  3-BENZYLIDENYL-]",134.7%,110.1%

Structure (SMILES),residual activity [1],residual activity [2]
CC(C)=CCC1=C(O)C(=O)c2ccccc2C1=O [LAPACHOL],115.5%,108.2%
COc1ccc2cc(CCC(C)=O)ccc2c1 [NABUMETONE],203%,110.7%
c1ccc2c(Cc3c[nH]c4ccccc34)c[nH]c2c1 [ARUNDINE],101.6%,110.1%
O=C(O)CCNC(=O)c1ccccc1 [BETAMIPRON],116.1%,92.61%
CC(=O)Oc1cc2c(c(C)c1OC(C)=O)CC=C1[C@]2(C)CC[C@]2(C)[C@@H]3C[C@](C)(C(=O)O)CC[C@]3(C)CC[C@@]12C,47.56%,13.7%
C[C@@H]1C[C@H](O)[C@@]2(O)[C@]13CC(=O)OC[C@]2(C)[C@@](C)(O)C(=O)C3,95.73%,109.4%
C[C@H]1[C@H](C)CC[C@@]23CC[C@]4(C)[C@@](C=C[C@@H]5[C@@]6(C)CC[C@H](O)C(C)(C)[C@@H]6CC[C@]54C)(OC2=O)[C@H]13,114.4%,98.51%
Nc1nc2c(ncn2COCCO)c(=O)[nH]1 [ACYCLOVIR],103.4%,105.5%
Cn1c(=O)[nH]c2ncn(C)c2c1=O [PARAXANTHINE],94.78%,88.58%
CC(C)C[C@H]1C(=O)N2CCC[C@H]2[C@]2(O)O[C@](NC(=O)[C@@H]3C=C4c5cccc6[nH]c(Br)c(c56)C[C@H]4N(C)C3)(C(C)C)C(=O)N12.CS(=O)(=O)O [BROMOCRIPTINE MESYLATE],67.37%,84.69%
CCCCC(=O)O[C@H]1CC[C@H]2[C@@H]3CCc4cc(O)ccc4[C@H]3CC[C@]12C [ESTRADIOL VALERATE],291.5%,129.8%
COc1ccc(C[C@H](N)C(=O)N[C@H]2[C@@H](O)[C@H](n3cnc4c(N(C)C)ncnc43)O[C@@H]2CO)cc1.Cl.Cl [PUROMYCIN HYDROCHLORIDE],95.86%,116.6%
C=CCc1ccc(O)c(OC)c1 [EUGENOL],106%,104.3%
CC(=O)Oc1ccc2c(c1)CCC1C2CC[C@]2(C)C(=O)CCC12 (stereo not given in full) [ESTRONE ACETATE],204.8%,109.5%
C[C@@H]1CC[C@@]2(OC1)O[C@H]1[C@@H](O)[C@H]3[C@@H]4CC[C@H]5C[C@@H](O[C@@H]6O[C@H](CO)[C@H](O[C@@H]7O[C@H](CO)C(O)[C@H](O[C@@H]8OC[C@@H](O)[C@H](O)[C@H]8O)[C@H]7O[C@@H]7O[C@H](CO)[C@H](O)[C@H](O[C@@H]8O[C@H](CO)[C@@H](O)[C@H](O)[C@H]8O)[C@H]7O)[C@H](O)[C@H]6O)[C@H](O)C[C@]5(C)[C@H]4CC[C@]3(C)[C@H]1[C@@H]2C (stereo not given in full) [DIGITONIN],76.09%,98.34%
CC(C)(C#N)O[C@@H]1O[C@H](CO)[C@@H](O)[C@H](O)[C@H]1O [LINAMARIN],131.3%,97.67%
CCCCCC(C)N.O=S(=O)(O)O (stereo not given),70.88%,90.66%
Nc1ccc(S(=O)(=O)Nc2nccs2)cc1 [SULFATHIAZOLE],89.12%,85.21%
COC(=O)CC[C@@H](C)[C@H]1CC[C@H]2[C@@H]3CC[C@@H]4C[C@H](O)CC[C@]4(C)[C@H]3C[C@H](O)[C@]12C [METHYL DEOXYCHOLATE],62.17%,71.46%
CNC(=O)CSP(=S)(OC)OC [DIMETHOATE],106.9%,114.1%
CCOC(=O)C(C)(C)Oc1ccc(Cl)cc1 [CLOFIBRATE],114.7%,127.7%
C/C1=C\CCC(=O)C2CC(C)(C)C2CC1 (stereo not given) [15-NORCARYOPHYLLEN-3-ONE],72.07%,90.82%
